In patent EP4371976B1, “IONIZABLE LIPIDS AND LIPID NANOPARTICLES CONTAINING THEREOF” (Certest Biotec, S.L., priority 2022, dated 2024):

Experiments:
[1] = Size distribution, polydispersity and Z-potential of LNPs by dynamic light scattering (Malvern Zetasizer); type: physicochemical
Method: The LNP solution was then adjusted to a final concentration of mRNA of 100 µg/ml. Size distribution, polydispersity and Z-potential were measured by dynamic light scattering (DLS) using Malvern Zetasizer Advance Lab Blue Label. RNA encapsulation was assessed by Quant-IT® Ribogreen following the manufacturer's instructions.

[2] = RNA encapsulation efficiency of LNPs by Quant-IT Ribogreen; type: physicochemical; settings: for Encaps. efficiency (%): LNPs with luciferase mRNA, ionizable lipid:non-cationic lipid:sterol:PEG-modified lipid 50:10:38.5:1.5; for Encaps. efficiency: Table 8, LNP 50:10:38.5:1.5, luciferase mRNA
Summary of the method: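 LNPs formed by mixing aqueous mRNA into ethanol lipid solution, diluted 1:1 in Tris, dialysed overnight against Tris with 15% sucrose. Encapsulated mRNA measured by Ribogreen fluorescence per kit protocol; LNPs adjusted to 100 µg/ml final mRNA.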

[3] = tested on: mice; experiment: LNP stability over time: in vivo transfection (total flux) in mice, fresh versus stored at 4 °C; settings: LNP 50:10:38.5:1.5
Method: Two LNPs comprising: ionizable lipid (Formula I):non-cationic lipid:sterol: PEG-modified lipid
in the ratios 50:10:38.5:1.5 were tested in order to determine their stability. Formulation A comprising VC-LC-0163 as the ionizable lipid was administered to mice and transfection efficiency measured with a fresh preparation in a first experiment, and with a preparation that had been stored for 83 days at T = 4 °C.
Formulation B comprising VC-LC-0263 as the ionizable lipid was administered to mice and transfection efficiency measured with a fresh preparation in a first experiment, and with a preparation that had been stored for 61 days at T = 4 °C.

[4] = Apparent pKa of LNPs comprising the ionizable lipid (Table 6); settings: standard formulation 50:10:38.5:1.5
[5] = tested on: Female BALB/c mice; experiment: Firefly luciferase expression (total flux, IVIS imaging) in mice after injection of mRNA-loaded LNPs; type: in vivo; settings: for Total Flux: LNP 50:10:38.5:1.5
Summary of the method: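 Female BALB/c mice (8-10 weeks) received 5 µg luciferase mRNA intramuscularly in LNPs of ionizable lipid:DSPC:cholesterol:DMG-PEG2000 at 50:10:38.5:1.5 mol%, N:P 5,5:1. From 4 to 72 h, isoflurane-anaesthetized mice were given D-luciferin at 150 mg/kg i.p. IVIS images were taken 10 min later as total flux.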

[6] = tested on: HEK293T cells; settings: reported by Molla et al., cited from earlier work
[7] = LNPs, standard formulation 50:10:38.5:1.5, DLS
[8] = percentage of RNA entrapped in the LNP
[9] = Table 10, VC-LC-0431:DOPE:Cholesterol:DMG-PEG2000 50:10:38.5:1.5
[10] = Table 8, mice, intramuscular, 5 µg luciferase mRNA in 50 µl

P.D.I. [1, 7]	Particle size/ Ø (nm) [1, 7]	Z Potential (± D.E.) [mV] [1, 7]	Encaps. efficiency (%) [2, 8]	Apparent pKa [4]	P.D.I. [1, 9]	Particle size/ Ø (nm) [1, 9]	Z Potential (± D.E.) [mV] [1, 9]	Encaps. efficiency [2]	Encapsulation efficiency (%) [2, 9]	encapsulation efficiency ([2]; Table 6, percentage of RNA entrapped in the LNP, LNP 50:10:38.5:1.5)	Structure (SMILES)	Total flux (p·s^-1) ([3]; t = 0, fresh preparation)	Total flux (p·s^-1) ([3]; t = 61 days, stored at 4 °C)	Total Flux [5, 10]	Total flux (p·s^-1) ([5]; Table 10, mice, VC-LC-0431:DOPE:Cholesterol:DMG-PEG2000 50:10:38.5:1.5)	Total Flux ([5]; Table 6, in vivo after injection)	transfection (luminescence) in vivo ([5]; Figure 2, intramuscular injection, LNP 50:10:38.5:1.5 encapsulating luciferase mRNA)	transfection efficiency ([6]; HEK293T cells, without addition of helper lipids)	toxicity ([6]; liposomes, in vitro)
0.11	196.6 nm	-0.28 mV	60.4%	5.77	0.114	196,6 nm	-0.281 mV	60.4%	60.4%	–	CCCCCCCCC(CCCCCC)COC(=O)CCSCCC(NC(=O)C(CCCCCC)CCCCCCCC)C(=O)NC1CCN(C)CC1 (centres unmarked) [VC-LC-0431]	–	–	9.92E+07 p·s^-1	9.92E+07 p·s^-1	–	–	–	–
0.10	167.4 nm	-3.61 mV	76.52%	6.75	–	–	–	76.5%	–	–	CCCCCCCCCCCCOC(=O)CCSCCC(C(=O)NC1CCN(C)CC1)C(=O)OC(CCCCCCCC)CCCCCCCC (centres unmarked) [VC-LC-0440]	–	–	2.42E+07 p·s^-1	–	–	–	–	–
0.17	160.8 nm	-3.40 mV	72.06%	7.07	–	–	–	72.1%	–	–	CCCCCCCCC(CCCCCC)COC(=O)CCSCCC(NC(=O)C(CCCCCC)CCCCCCCC)C(=O)NCC1CCN(C)CC1 (centres unmarked) [VC-LC-0491]	–	–	2.37E+07 p·s^-1	–	–	–	–	–
0.13	152.6 nm	-2.43 mV	91.49%	7.48	–	–	–	91.49%	–	–	CCCCCCCCCCC(CCCCCCCC)C(=O)NC(CCSCCC(=O)OCC(CCCCCC)CCCCCCCC)C(=O)NCC1CCN(C)CC1 (centres unmarked) [VC-LC-0508]	–	–	1.7E+08 p·s^-1	–	–	–	–	–
0.12	141.7 nm	1.90 mV	98.61%	7.26	–	–	–	98.61%	–	–	CCCCCCCCCCC(CCCCCCCC)C(=O)NC(CCSCCC(=O)OCCCCCC(C)C)C(=O)NCC1CCN(C)CC1 (centres unmarked) [VC-LC-0515]	–	–	3.0E+07 p·s^-1	–	–	–	–	–
0.13	176.7 nm	-1.24 mV	85.33%	6.90	–	–	–	85.3%	–	–	CCCCCCCC/C=C\CCCCCCCCOC(=O)CCSCC(CC(=O)NC1CCN(C)CC1)C(=O)OCC(CCCCCC)CCCCCCCC (centres unmarked) [VC-LC-0539]	–	–	3.6E+07 p·s^-1	–	–	–	–	–
0.16	173.7 nm	-14.52 mV	26.96%	6.53	–	–	–	–	–	26.96%	CCCCCCCCC(CCCCCCCC)OC(=O)C(CSCCC(=O)OCCCCCC)CC(=O)NCCCN1CCOCC1 (centres unmarked) [VC-LC-0550]	–	–	–	–	3,4·10^7 p·s^-1	–	–	–
0.15	155.3 nm	-11.66 mV	29.06%	6.51	–	–	–	29.06%	–	–	CCCCCCCCOC(=O)CCSCC(CC(=O)NCCCN1CCOCC1)C(=O)OC(CCCCCCCC)CCCCCCCC (centres unmarked) [VC-LC-0551]	–	–	1.1E+08 p·s^-1	–	–	–	–	–
0.11	155.2 nm	-6.62 mV	50.58%	5.95	–	–	–	50.6%	–	–	CCCCCCCCCCC(CCCCCCCC)C(=O)NC(CCSCCC(=O)OCCCCCCCC(C)C)C(=O)NC1CCN(C)CC1 (centres unmarked) [VC-LC-0558]	–	–	7.9E07 p·s^-1	–	–	–	–	–
–	–	–	–	–	–	–	–	–	–	–	CCCCCCCC/C=C\CCCCCCCCC(=O)CC(CCSSCCCCCCCCCCCC)C(=O)NCCN1CCN(C)CC1 (centres unmarked) [VC-LC-0588]	–	–	–	–	–	no transfection	about 95%	low toxicity

Structure (SMILES)	P.D.I. [1, 7]	Particle size/ Ø (nm) [1, 7]	Z Potential (± D.E.) [mV] [1, 7]	Encaps. efficiency (%) [2, 8]	Apparent pKa [4]	P.D.I. [1, 9]	Particle size/ Ø (nm) [1, 9]	Z Potential (± D.E.) [mV] [1, 9]	Encaps. efficiency [2]	Encapsulation efficiency (%) [2, 9]	encapsulation efficiency ([2]; Table 6, percentage of RNA entrapped in the LNP, LNP 50:10:38.5:1.5)	Total flux (p·s^-1) ([3]; t = 0, fresh preparation)	Total flux (p·s^-1) ([3]; t = 61 days, stored at 4 °C)	Total Flux [5, 10]	Total flux (p·s^-1) ([5]; Table 10, mice, VC-LC-0431:DOPE:Cholesterol:DMG-PEG2000 50:10:38.5:1.5)	Total Flux ([5]; Table 6, in vivo after injection)	transfection (luminescence) in vivo ([5]; Figure 2, intramuscular injection, LNP 50:10:38.5:1.5 encapsulating luciferase mRNA)	transfection efficiency ([6]; HEK293T cells, without addition of helper lipids)	toxicity ([6]; liposomes, in vitro)
CCCCCCCCCCCCCCCCOC(=O)CCSCCC(NC(=O)C(CCCCCC)CCCCCCCC)C(=O)NCCCn1ccnc1 (centres unmarked) [VC-LC-0263]	0.13	188.6 nm	-17.30 mV	60.70%	–	–	–	–	–	–	–	1.19E+08 p·s^-1	5.07E+07 p·s^-1	–	–	–	–	–	–
